{"source": "paper PMC5218480", "about": "(PLoS ONE, 2017)", "tested_on": "MV-4-11 cells", "test": "Gene expression microarray analysis (Affymetrix PrimeView) and GSEA", "assay_type": "cell-based, human", "design": "RFU PODN (11730768_x_at) / Fold change /veh PODN (11730768_x_at) / RFU LINC00158 (11744669_a_at) / Fold change /veh LINC00158 (11744669_a_at) / RFU DUSP10 (11751237_a_at) / Fold change /veh DUSP10 (11751237_a_at) / RFU ID3 (11757404_x_at) / Fold change /veh ID3 (11757404_x_at) / RFU PLEKHG5 (11737974_s_at) / Fold change /veh PLEKHG5 (11737974_s_at) / RFU LRRC4B (11730491_at) / Fold change /veh LRRC4B (11730491_at) / RFU GIMAP4 (11747438_a_at) / Fold change /veh GIMAP4 (11747438_a_at) / RFU KRT8 (11758183_x_at) / Fold change /veh KRT8 (11758183_x_at) / RFU CNN1 (11734310_a_at) / Fold change /veh CNN1 (11734310_a_at) / RFU VPS37D (11726825_at) / Fold change /veh VPS37D (11726825_at) / RFU C10orf10 (11716522_x_at) / Fold change /veh C10orf10 (11716522_x_at) / RFU KIR2DL2 /// KIR2DL4 /// KIR2DL5A /// KIR2DL5B /// KIR2DS1 /// KIR2DS2 /// KIR2DS3 /// KIR2DS4 /// KIR3DL3 /// KIR3DL3 /// KIR3DS1 (11738374_at) / Fold change /veh KIR2DL2 /// KIR2DL4 /// KIR2DL5A /// KIR2DL5B /// KIR2DS1 /// KIR2DS2 /// KIR2DS3 /// KIR2DS4 /// KIR3DL3 /// KIR3DL3 /// KIR3DS1 (11738374_at) / RFU C1QL1 (11718748_at) / Fold change /veh C1QL1 (11718748_at) / RFU TMPRSS4 (11747572_a_at) / Fold change /veh TMPRSS4 (11747572_a_at) / RFU HAMP (11756126_x_at) / Fold change /veh HAMP (11756126_x_at) / RFU RNFT2 (11725882_a_at) / Fold change /veh RNFT2 (11725882_a_at) / RFU NR4A2 (11747474_a_at) / Fold change /veh NR4A2 (11747474_a_at) / RFU ABCC12 (11746883_a_at) / Fold change /veh ABCC12 (11746883_a_at) / RFU TMEM136 (11760407_x_at) / Fold change /veh TMEM136 (11760407_x_at) / RFU CLDN22 /// WWC2 (11732394_at) / Fold change /veh CLDN22 /// WWC2 (11732394_at) / RFU HLA-DPB1 (11760878_x_at) / Fold change /veh HLA-DPB1 (11760878_x_at) / RFU SPINT1 (11716480_a_at) / Fold change /veh SPINT1 (11716480_a_at) / RFU GAP43 (11754022_s_at) / Fold change /veh GAP43 (11754022_s_at) / RFU A4GNT (11735810_at) / Fold change /veh A4GNT (11735810_at) / RFU PRB3 (11715151_x_at) / Fold change /veh PRB3 (11715151_x_at) / RFU TUBB4B (11761932_at) / Fold change /veh TUBB4B (11761932_at) / RFU CAPN14 (11732068_a_at) / Fold change /veh CAPN14 (11732068_a_at) / RFU TMCC2 (11721928_a_at) / Fold change /veh TMCC2 (11721928_a_at) / RFU IRGQ (11745062_a_at) / Fold change /veh IRGQ (11745062_a_at) / RFU FAM174B (11720279_a_at) / Fold change /veh FAM174B (11720279_a_at) / RFU TMPRSS4 (11748680_a_at) / Fold change /veh TMPRSS4 (11748680_a_at) / RFU FAM212B (11763350_a_at) / Fold change /veh FAM212B (11763350_a_at) / RFU PLEKHG5 (11743358_a_at) / Fold change /veh PLEKHG5 (11743358_a_at) / RFU ZSCAN30 (11745921_a_at) / Fold change /veh ZSCAN30 (11745921_a_at) / RFU CMKLR1 (11741424_a_at) / Fold change /veh CMKLR1 (11741424_a_at) / RFU LOC101060620 /// MAPK8IP1 (11723275_at) / Fold change /veh LOC101060620 /// MAPK8IP1 (11723275_at) / RFU SPTSSB (11747773_x_at) / Fold change /veh SPTSSB (11747773_x_at) / RFU PRSS12 (11739890_at) / Fold change /veh PRSS12 (11739890_at) / RFU BIN1 (11741810_x_at) / Fold change /veh BIN1 (11741810_x_at) / RFU WNT11 (11732464_a_at) / Fold change /veh WNT11 (11732464_a_at) / RFU C10orf10 (11716521_a_at) / Fold change /veh C10orf10 (11716521_a_at) / RFU C5orf56 (11738089_at) / Fold change /veh C5orf56 (11738089_at) / RFU CYB561 (11721691_x_at) / Fold change /veh CYB561 (11721691_x_at) / RFU ANKRD19P (11752326_a_at) / Fold change /veh ANKRD19P (11752326_a_at) / RFU OR2T12 /// OR2T33 /// OR2T8 (11738714_s_at) / Fold change /veh OR2T12 /// OR2T33 /// OR2T8 (11738714_s_at) / RFU VCAN (11748164_a_at) / Fold change /veh VCAN (11748164_a_at) / RFU JSRP1 (11732532_at) / Fold change /veh JSRP1 (11732532_at) / RFU KRTAP10-11 (11738290_x_at) / Fold change /veh KRTAP10-11 (11738290_x_at) / RFU MYO3A (11730013_a_at) / Fold change /veh MYO3A (11730013_a_at) / RFU EBF3 (11725865_a_at) / Fold change /veh EBF3 (11725865_a_at) / RFU CAMK2N1 (11719241_x_at) / Fold change /veh CAMK2N1 (11719241_x_at) / RFU C5orf56 (11738088_a_at) / Fold change /veh C5orf56 (11738088_a_at) / RFU OLFML3 (11715873_a_at) / Fold change /veh OLFML3 (11715873_a_at) / RFU LOC100653217 /// NTM (11731650_a_at) / Fold change /veh LOC100653217 /// NTM (11731650_a_at) / RFU MAPK11 (11762145_a_at) / Fold change /veh MAPK11 (11762145_a_at) / RFU FIZ1 (11724087_x_at) / Fold change /veh FIZ1 (11724087_x_at) / RFU OASL (11726364_x_at) / Fold change /veh OASL (11726364_x_at) / RFU SOX15 (11748057_x_at) / Fold change /veh SOX15 (11748057_x_at) / RFU CD79A (11719716_a_at) / Fold change /veh CD79A (11719716_a_at) / RFU HIST1H1D (11736915_at) / Fold change /veh HIST1H1D (11736915_at) / RFU CASKIN2 (11723855_a_at) / Fold change /veh CASKIN2 (11723855_a_at) / RFU LOC730098 (11760151_x_at) / Fold change /veh LOC730098 (11760151_x_at) / RFU OR4N2 (11742367_at) / Fold change /veh OR4N2 (11742367_at) / RFU PRRT2 (11749266_a_at) / Fold change /veh PRRT2 (11749266_a_at) / RFU SNX32 (11753110_a_at) / Fold change /veh SNX32 (11753110_a_at) / RFU CDHR5 (11726645_a_at) / Fold change /veh CDHR5 (11726645_a_at) / RFU RCAN1 (11760418_a_at) / Fold change /veh RCAN1 (11760418_a_at) / RFU FAM167A (11723789_a_at) / Fold change /veh FAM167A (11723789_a_at) / RFU FAM26E (11764081_at) / Fold change /veh FAM26E (11764081_at) / RFU ISYNA1 (11749810_s_at) / Fold change /veh ISYNA1 (11749810_s_at) / RFU ACY1 (11761880_at) / Fold change /veh ACY1 (11761880_at) / RFU 11764098_at / Fold change /veh 11764098_at / RFU SAMD14 (11745864_x_at) / Fold change /veh SAMD14 (11745864_x_at) / RFU NPB (11741838_a_at) / Fold change /veh NPB (11741838_a_at) / RFU TMPRSS6 (11731388_a_at) / Fold change /veh TMPRSS6 (11731388_a_at) / RFU KRTAP10-2 (11738614_at) / Fold change /veh KRTAP10-2 (11738614_at) / RFU ARHGAP8 /// PRR5-ARHGAP8 (11727945_x_at) / Fold change /veh ARHGAP8 /// PRR5-ARHGAP8 (11727945_x_at) / RFU KRTAP5-7 /// NADSYN1 (11734609_at) / Fold change /veh KRTAP5-7 /// NADSYN1 (11734609_at) / RFU RASL12 (11751679_a_at) / Fold change /veh RASL12 (11751679_a_at) / RFU CDKN2B (11736163_a_at) / Fold change /veh CDKN2B (11736163_a_at) / RFU PRF1 (11729649_at) / Fold change /veh PRF1 (11729649_at) / RFU, ZNF638 /// ZNF638-IT1 / Fold change vs veh, ZNF638 /// ZNF638-IT1 / RFU, PANK3 / Fold change vs veh, PANK3 / RFU, SH3YL1 / Fold change vs veh, SH3YL1 / RFU, ZEB2 / Fold change vs veh, ZEB2 / RFU, NRIP1 / Fold change vs veh, NRIP1 / RFU, PTTG1IP / Fold change vs veh, PTTG1IP / RFU, CAPN2 / Fold change vs veh, CAPN2 / RFU, MED14 / Fold change vs veh, MED14 / RFU, SNORA58 / Fold change vs veh, SNORA58 / RFU, C1orf63 / Fold change vs veh, C1orf63 / RFU, LRRFIP1 / Fold change vs veh, LRRFIP1 / RFU, NDUFAF7 / Fold change vs veh, NDUFAF7 / RFU, SLC12A2 / Fold change vs veh, SLC12A2 / RFU, IBTK / Fold change vs veh, IBTK / RFU, ESF1 / Fold change vs veh, ESF1 / Fold change vs veh, TMEM50B / RFU, TAOK1 / Fold change vs veh, TAOK1 / RFU, ACBD3 / Fold change vs veh, ACBD3 / RFU, TMA16 / Fold change vs veh, TMA16 / RFU, RWDD3 / Fold change vs veh, RWDD3 / RFU, BCAT1 / Fold change vs veh, BCAT1 / RFU, EDEM3 / Fold change vs veh, EDEM3 / RFU, TMEM33 / Fold change vs veh, TMEM33 / RFU, WDR75 / Fold change vs veh, WDR75 / RFU, AHCTF1 / Fold change vs veh, AHCTF1 / RFU, TFRC / Fold change vs veh, TFRC / RFU, ZDHHC17 / Fold change vs veh, ZDHHC17 / RFU, NOM1 / Fold change vs veh, NOM1 / RFU, ARL8B / Fold change vs veh, ARL8B / RFU, ZBTB11 / Fold change vs veh, ZBTB11 / RFU, TAMM41 / Fold change vs veh, TAMM41 / RFU, KIAA1704 /// LOC100996395 / Fold change vs veh, KIAA1704 /// LOC100996395 / RFU, ING1 / Fold change vs veh, ING1 / RFU, TRMT61B / Fold change vs veh, TRMT61B / RFU, FUBP3 / Fold change vs veh, FUBP3 / RFU, TP53 / Fold change vs veh, TP53 / RFU, TNKS2 / Fold change vs veh, TNKS2 / RFU, ZFP14 / Fold change vs veh, ZFP14 / RFU, ACTR2 / Fold change vs veh, ACTR2 / RFU, PPP3R1 / Fold change vs veh, PPP3R1 / RFU, PIK3R1 / Fold change vs veh, PIK3R1 / RFU, HNRNPA1 / Fold change vs veh, HNRNPA1 / RFU, RNF170 / Fold change vs veh, RNF170 / RFU, ZNF28 / Fold change vs veh, ZNF28 / RFU, RNGTT / Fold change vs veh, RNGTT / RFU, OGT / Fold change vs veh, OGT / RFU, BRD1 / Fold change vs veh, BRD1 / RFU, MARS / Fold change vs veh, MARS / RFU, ZNF655 / Fold change vs veh, ZNF655 / RFU, FAHD1 / Fold change vs veh, FAHD1 / RFU, BDP1 / Fold change vs veh, BDP1 / RFU, LRRCC1 / Fold change vs veh, LRRCC1 / RFU, ARID1A / Fold change vs veh, ARID1A / RFU, ZNF146 / Fold change vs veh, ZNF146 / RFU, ZNF330 / Fold change vs veh, ZNF330 / RFU, GPN3 / Fold change vs veh, GPN3 / RFU, C9orf123 / Fold change vs veh, C9orf123 / RFU, N4BP2L2 / Fold change vs veh, N4BP2L2 / RFU, ARFIP1 / Fold change vs veh, ARFIP1 / RFU, FAM179B / Fold change vs veh, FAM179B / RFU, BCL10 / Fold change vs veh, BCL10 / RFU, UHRF1BP1L / Fold change vs veh, UHRF1BP1L / RFU, BET1 / Fold change vs veh, BET1 / RFU, CNOT2 / Fold change vs veh, CNOT2 / RFU, ZNF268 / Fold change vs veh, ZNF268 / Fold change vs veh, ZNF507 / RFU, DGCR2 / Fold change vs veh, DGCR2 / RFU, WDSUB1 / Fold change vs veh, WDSUB1 / Fold change vs veh, HSP90B1 /// MIR3652 / RFU, ADSS / Fold change vs veh, ADSS / RFU, GK / Fold change vs veh, GK / RFU, ZNF148 / Fold change vs veh, ZNF148 / RFU, TAF9 / Fold change vs veh, TAF9 / RFU, SLC1A5 / Fold change vs veh, SLC1A5 / RFU, SLMO2 / Fold change vs veh, SLMO2 / RFU, ABCC4 / Fold change vs veh, ABCC4 / RFU, LOC101060439 /// RAP1B / Fold change vs veh, LOC101060439 /// RAP1B / RFU, RFX7 / Fold change vs veh, RFX7 / RFU, GTPBP10 / Fold change vs veh, GTPBP10 / RFU, CNEP1R1 / Fold change vs veh, CNEP1R1 / RFU, BIVM-ERCC5 /// ERCC5 / Fold change vs veh, BIVM-ERCC5 /// ERCC5 / RFU, ILF3 / Fold change vs veh, ILF3 / RFU 11762660_at / Fold change /veh 11762660_at / RFU VCAN (11757783_s_at) / Fold change /veh VCAN (11757783_s_at) / RFU DDX43 (11728927_at) / Fold change /veh DDX43 (11728927_at) / RFU KRT8 (11758188_x_at) / Fold change /veh KRT8 (11758188_x_at) / RFU NKD1 (11759106_at) / Fold change /veh NKD1 (11759106_at) / RFU SRD5A1 (11742802_a_at) / Fold change /veh SRD5A1 (11742802_a_at) / RFU TPSAB1 /// TPSB2 (11721975_s_at) / Fold change /veh TPSAB1 /// TPSB2 (11721975_s_at) / RFU GSTM3 (11746129_a_at) / Fold change /veh GSTM3 (11746129_a_at) / RFU IL23R (11737362_x_at) / Fold change /veh IL23R (11737362_x_at) / RFU TMEM51 (11727254_a_at) / Fold change /veh TMEM51 (11727254_a_at) / RFU PIWIL2 (11732686_x_at) / Fold change /veh PIWIL2 (11732686_x_at) / RFU ORM1 (11744905_x_at) / Fold change /veh ORM1 (11744905_x_at) / RFU CCDC152 (11743942_at) / Fold change /veh CCDC152 (11743942_at) / RFU ECM1 (11717891_a_at) / Fold change /veh ECM1 (11717891_a_at) / RFU IL23R (11748794_a_at) / Fold change /veh IL23R (11748794_a_at) / RFU TNFAIP8L3 (11732012_x_at) / Fold change /veh TNFAIP8L3 (11732012_x_at) / RFU MBOAT4 (11741988_at) / Fold change /veh MBOAT4 (11741988_at) / RFU 11764193_at / Fold change /veh 11764193_at / RFU TMEM53 (11763286_at) / Fold change /veh TMEM53 (11763286_at) / RFU MAGEB2 (11727129_at) / Fold change /veh MAGEB2 (11727129_at) / RFU TMEM200A (11744735_a_at) / Fold change /veh TMEM200A (11744735_a_at) / RFU CCDC152 (11751479_a_at) / Fold change /veh CCDC152 (11751479_a_at) / RFU FAM211A (11726209_a_at) / Fold change /veh FAM211A (11726209_a_at) / RFU RGS16 (11746705_a_at) / Fold change /veh RGS16 (11746705_a_at) / RFU VCAN (11755009_s_at) / Fold change /veh VCAN (11755009_s_at) / RFU RHOB (11743442_s_at) / Fold change /veh RHOB (11743442_s_at) / RFU RGS16 (11720943_a_at) / Fold change /veh RGS16 (11720943_a_at) / RFU RGS16 (11720944_at) / Fold change /veh RGS16 (11720944_at) / RFU, VPS4B / Fold change vs veh, VPS4B / RFU, CREB1 / Fold change vs veh, CREB1 / RFU, DNAJC13 / Fold change vs veh, DNAJC13 / RFU, GNAQ / Fold change vs veh, GNAQ / RFU, CDK5R1 / Fold change vs veh, CDK5R1 / RFU, ZRANB3 / Fold change vs veh, ZRANB3 / RFU, CUL4A / Fold change vs veh, CUL4A / RFU, CCNY / Fold change vs veh, CCNY / RFU, UFL1 / Fold change vs veh, UFL1 / RFU, COG3 / Fold change vs veh, COG3 / RFU, DIAPH2 / Fold change vs veh, DIAPH2 / RFU, SKA2 / Fold change vs veh, SKA2 / RFU, AFF3 / Fold change vs veh, AFF3 / RFU, LMF1 / Fold change vs veh, LMF1 / RFU, IPO11 / Fold change vs veh, IPO11 / RFU, DFFB / Fold change vs veh, DFFB / RFU, FOXP1 / Fold change vs veh, FOXP1 / RFU, CARD8 / Fold change vs veh, CARD8 / RFU, STRN3 / Fold change vs veh, STRN3 / RFU, ADK / Fold change vs veh, ADK / RFU, RASSF2 / Fold change vs veh, RASSF2 / RFU, WIPF1 / Fold change vs veh, WIPF1 / RFU, LARP1B / Fold change vs veh, LARP1B / RFU, RASA1 / Fold change vs veh, RASA1 / RFU, RB1 / Fold change vs veh, RB1 / RFU, PPFIA1 / Fold change vs veh, PPFIA1 / RFU, MAT2A / Fold change vs veh, MAT2A / RFU, CCT5 / Fold change vs veh, CCT5 / RFU, WDR92 / Fold change vs veh, WDR92 / RFU, CUX1 / Fold change vs veh, CUX1 / RFU, TTC7A / Fold change vs veh, TTC7A / RFU, TMEM135 / Fold change vs veh, TMEM135 / RFU, DEPTOR / Fold change vs veh, DEPTOR / RFU, CPM / Fold change vs veh, CPM / RFU, DNAJB6 / Fold change vs veh, DNAJB6 / RFU, CACNA2D3 / Fold change vs veh, CACNA2D3 / RFU, DTX4 / Fold change vs veh, DTX4 / RFU, TFCP2 / Fold change vs veh, TFCP2 / RFU, GMCL1 /// GMCL1P1 / Fold change vs veh, GMCL1 /// GMCL1P1 / RFU, AEBP2 / Fold change vs veh, AEBP2 / RFU, SNHG1 /// SNORD22 /// SNORD25 /// SNORD26 /// SNORD27 /// SNORD28 /// SNORD29 /// SNORD31 / Fold change vs veh, SNHG1 /// SNORD22 /// SNORD25 /// SNORD26 /// SNORD27 /// SNORD28 /// SNORD29 /// SNORD31 / Fold change (Aza/veh), C12orf56 (ProbeSet 11735607_a_at) / Fold change (ACY-1035/veh), C12orf56 (ProbeSet 11735607_a_at) / Fold change (Aza/veh), FGFR1OP (ProbeSet 11751329_s_at) / Fold change (ACY-1035/veh), FGFR1OP (ProbeSet 11751329_s_at) / Fold change (Aza/veh), VPS36 (ProbeSet 11739960_a_at) / Fold change (ACY-1035/veh), VPS36 (ProbeSet 11739960_a_at) / RFU SYPL1 (11715823_x_at) / Fold change /veh SYPL1 (11715823_x_at) / RFU IGFBP7 (11715501_s_at) / Fold change /veh IGFBP7 (11715501_s_at) / RFU REEP3 (11722064_at) / Fold change /veh REEP3 (11722064_at) / RFU IGLL1 (11728026_x_at) / Fold change /veh IGLL1 (11728026_x_at): dose or concentration left out as unconfirmed", "conditions": "MV-4-11 cells, 48 hours", "data": [{"smiles": "Nc1ncn([C@@H]2O[C@H](CO)[C@@H](O)[C@H]2O)c(=O)n1", "note": "[azacitidine]", "values": [{"measurement": "Fold change /veh OR2T12 /// OR2T33 /// OR2T8 (11738714_s_at)", "result": 1.07}]}]}
